In the experiment the test system is murine neural precursor cells (neurosphere cultures). In words: HTS of LOPAC library against secondary neurosphere cultures, MTT proliferation assay at 3 μM, day 7 (z score, P value). The experiment is classed as cell-based, mouse.
[1] abbreviates: LOPAC primary screen, neurosphere MTT proliferation, 3 μM, day 7.
Where [2] appears, read: yes = significantly inhibited neurosphere proliferation (P<0.01) in the primary screen.
Setting [3] is: yes/no: significantly inhibited neurosphere proliferation in primary screen.
Setting [4] is: LOPAC library screen at 3 μM, secondary neurosphere cultures, MTT.
Where [5] appears, read: yes/no: significantly inhibited neurosphere proliferation (P<0.01) in the primary screen.
[6] abbreviates: LOPAC library screen, 3 μM, MTT, secondary neurosphere cultures, day 7.
Setting [7] is: LOPAC library screen, 3 μM, MTT, neurosphere cultures.

Molecules are shown by their SMILES. Where a name gives a salt, the structure may show the parent alone. Read-outs that look alike come from different tables or passages of the source.

With `O=c1onc2n1-c1cc(Br)ccc1OC2` [NS 2028], the “Z Score” value is −2.684. The molecule further had a Z score under setting [1] of −2.684. For the same molecule, under setting [2], the Activity result is “yes”.
Regarding `O=c1[nH]c2cc(C(F)(F)F)ccc2n1-c1cc(C(F)(F)F)ccc1O` [NS-1619], the “Z Score” value is listed as −0.4878. The Z score under setting [1] is −0.488. The Activity result under setting [3] is given as “no”.
On to `COc1ccccc1N1CCN(CC(O)COc2cccc3ccccc23)CC1` (stereo not shown) [Naftopidil dihydrochloride], for which the “Z Score” value under setting [4] is −0.1172. Under setting [1], this molecule yielded a Z score of −0.117. Further, under setting [3], the Activity entry is reported as “no”.
As for `Oc1ccc2c3c1O[C@H]1[C@@H](O)CC[C@@]4(O)[C@@H](C2)N(CC2CCC2)CC[C@]314` [Nalbuphine hydrochloride], the Activity entry is “no”, the “Z Score” value worked out at 0.07032 and the Z score amounted to 0.070.
`CCn1cc(C(=O)O)c(=O)c2ccc(C)nc21` [Nalidixic acid sodium]: the “Z Score” value was −0.3145. Moreover, the Z score under setting [1] is −0.314. Under setting [2], the Activity entry is on record as “no”.
For the molecule `C=CCN1CC[C@]23c4c5ccc(O)c4O[C@H]2/C(=N/N=C2\CC[C@@]4(O)[C@H]6Cc7ccc(O)c8c7[C@@]4(CCN6CC=C)[C@H]2O8)CC[C@@]3(O)[C@H]1C5` [Naloxonazine dihydrochloride], the “Z Score” value is given as −0.6061. The molecule further yielded a Z score under setting [1] of −0.606. Besides, under setting [5], the Activity entry was “no”.
For `C=CCN1CC[C@]23c4c5ccc(O)c4O[C@H]2/C(=N/NC(=O)c2ccccc2)CC[C@@]3(O)[C@H]1C5` [Naloxone benzoylhydrazone] the same measures were 1.915, 1.915 and “no”.
With `C=CCN1CC[C@]23c4c5ccc(O)c4O[C@H]2C(=O)CC[C@@]3(O)[C@H]1C5` [Naloxone hydrochloride], the “Z Score” value under setting [6] was −10.14. This molecule also displayed a Z score under setting [1] of −10.137. Also, under setting [5], the Activity entry was “yes”.
Consider `O=C1CC[C@@]2(O)[C@H]3Cc4ccc(O)c5c4[C@@]2(CCN3CC2CC2)[C@H]1O5` [Naltrexone hydrochloride], for which the “Z Score” value under setting [7] came out at 0.3891. This molecule also had a Z score under setting [1] of 0.389. Also, the Activity result under setting [5] is “no”.
`Oc1ccc2c3c1O[C@H]1c4oc5ccccc5c4C[C@@]4(O)[C@@H](C2)N(CC2CC2)CC[C@]314` [Naltriben methanesulfonate]: the “Z Score” value was −0.3606. Moreover, under setting [1], the Z score is −0.361. Besides, under setting [3], the Activity result is listed as “no”.
On to `Oc1ccc2c3c1O[C@H]1c4[nH]c5ccccc5c4C[C@@]4(O)[C@@H](C2)N(CC2CC2)CC[C@]314` [Naltrindole hydrochloride], for which the “Z Score” value is reported as −0.314. In addition, the Z score under setting [1] is recorded as −0.314. Moreover, under setting [2], the Activity result is given as “no”.
On to `c1ccc2c(CC3=NCCN3)cccc2c1` [Naphazoline hydrochloride], for which the “Z Score” value under setting [6] is −1.724. The molecule also yielded a Z score under setting [1] of −1.724. Moreover, the Activity result under setting [2] is “no”.
As for `CN(C)C(=O)Oc1cccc([N+](C)(C)C)c1` [Neostigmine bromide], the “Z Score” value was found to be 1.228. Moreover, the Z score under setting [1] is listed as 1.228. The Activity result under setting [2] was “no”.
Consider `O=C(CCNNC(=O)c1ccncc1)NCc1ccccc1` [Nialamide], for which the “Z Score” value under setting [7] was −0.02937. In addition, the Z score under setting [1] is −0.029. Under setting [2], the Activity entry is “no”.
Turning to `COC(=O)C1=C(C)NC(C)=C(C(=O)OCCN(C)Cc2ccccc2)C1c1cccc([N+](=O)[O-])c1` (stereo not shown) [Nicardipine hydrochloride], the “Z Score” value (LOPAC library screen at 3 μM, MTT, secondary neurosphere cultures, screened in singlets) is 1.869. The molecule further gave a Z score under setting [1] of 1.869. In addition, under setting [2], the Activity result is “no”.
For `O=C(Nc1ccc([N+](=O)[O-])cc1Cl)c1cc(Cl)ccc1O` [Niclosamide], the “Z Score” value under setting [6] is given as −2.784. This molecule showed a Z score under setting [1] of −2.784. In addition, the Activity entry under setting [5] is listed as “yes”.
Consider `COC(=O)C1=C(C)NC(C)=C(C(=O)OC)C1c1ccccc1[N+](=O)[O-]` [Nifedipine], for which, under “168 h, 3 µM”, the “Z Score” value is given as −0.2937 and the Z score was −0.294.
Turning to `O=C(O)c1cccnc1Nc1cccc(C(F)(F)F)c1` [Niflumic acid], the “Z Score” value under setting [6] is listed as −1.958. For the same molecule, the Z score under setting [1] is −1.958. Under setting [2], the Activity result is “no”.
Consider `CC1(C)NC(=O)N(c2ccc([N+](=O)[O-])c(C(F)(F)F)c2)C1=O` [Nilutamide], for which the “Z Score” value under setting [7] turned out to be 0.1188. Under setting [1], this molecule showed a Z score of 0.119. Also, the Activity entry under setting [2] is listed as “no”.
Turning to `CS(=O)(=O)Nc1ccc([N+](=O)[O-])cc1Oc1ccccc1` [Nimesulide], the Activity result is on record as “yes”. Moreover, under setting [6], the “Z Score” value is listed as −2.395. The same molecule registered a Z score under setting [1] of −2.395.
In the case of `COCCOC(=O)C1=C(C)NC(C)=C(C(=O)OC(C)C)C1c1cccc([N+](=O)[O-])c1` (stereo not shown) [Nimodipine], the “Z Score” value under setting [4] is listed as −0.8542. The molecule also yielded a Z score under setting [1] of −0.854.
In the case of `Cc1ncc(CNC(=O)N(CCCl)N=O)c(N)n1.Cl` [Nimsutine hydrochloride], the Z score under setting [1] was −0.652. The Activity result under setting [2] is on record as “no”.
In the case of `Cc1ncc(CNC(=O)N(CCCl)N=O)c(N)n1` [Nimustine hydrochloride], the “Z Score” value was −0.6524.
Regarding `CNCCC(Oc1ccccc1OC)c1ccccc1` (stereo not shown) [Nisoxetine hydrochloride], the “Z Score” value is on record as 0.8336 and the Z score was found to be 0.834.
In the case of `CCOC(=O)C1=C(C)NC(C)=C(C(=O)OC)C1c1cccc([N+](=O)[O-])c1` (stereo not shown) [Nitrendipine], the “Z Score” value under setting [6] was −1.61. Moreover, the Z score under setting [1] was −1.610.
Regarding `COC(=O)Nc1nc2ccc(C(=O)c3cccs3)cc2[nH]1` [Nocodazole], the “Z Score” value under setting [4] is listed as −0.1891. For the same molecule, the Z score under setting [1] is on record as −0.189. The Activity result under setting [2] was “no”.
For the molecule `CN1Cc2c(N)cccc2C(c2ccccc2)C1` (stereo not shown) [Nomifensine maleate], the “Z Score” value under setting [7] worked out at 0.6693. Moreover, the Z score under setting [1] came to 0.669. For the same molecule, the Activity result under setting [2] was “no”.
As to `O=C1OC(=O)[C@H]2[C@@H]1[C@@H]1CC[C@H]2O1` [Norcantharidin], the “Z Score” value is on record as −1.251. Under setting [1], this molecule registered a Z score of −1.251. Besides, the Activity entry under setting [2] is “no”.
On to `CNCCC=C1c2ccccc2CCc2ccccc21` [Nortriptyline hydrochloride], for which the “Z Score” value under setting [4] is recorded as −1.095. Further, the Z score under setting [1] is recorded as −1.095. Moreover, under setting [2], the Activity entry is reported as “no”.
`COc1ccc2c(c1OC)C(=O)O[C@@H]2[C@H]1c2c(cc3c(c2OC)OCO3)CCN1C.Cl` [Noscapine hydrchloride]: the “Z Score” value under setting [6] was −2.455. This molecule gave a Z score under setting [1] of −2.455. Also, the Activity entry under setting [5] was “yes”.
Turning to `CC(CCc1ccccc1)NC(C)C(O)c1ccc(O)cc1` (stereo not shown) [Nylidrin hydrochloride], the “Z Score” value under setting [6] is given as −1.375. This molecule returned a Z score under setting [1] of −1.375. Besides, the Activity entry under setting [2] was “no”.
Consider `CN(C)C(=N)NCCC[C@H](N)C(=O)O.Cl` [N′,N′-Dimethylarginine hydrochloride], for which the Z score (LOPAC screen, neurosphere MTT proliferation, 3 μM, day 7) was −1.373. In addition, the Activity entry (yes/no: significantly inhibited neurosphere proliferation (P<0.01) in primary screen) was “no”.
As for `Nc1nc(OCc2ccccc2)c2nc[nH]c2n1` [O6-benzylguanine], the “Z Score” value under setting [4] is given as −1.177. In addition, the Z score (primary LOPAC screen, 3 μM, MTT, neurosphere proliferation) is reported as −1.177. For the same molecule, the Activity result (yes/no: significantly inhibited neurosphere proliferation in the primary screen) is “no”.
Turning to `COc1ccc2[nH]cc(CCN)c2c1.Cl` [O-Methylserotonin hydrochloride], the “Z Score” value is −0.172. Further, the Z score under setting [1] was −0.172. Further, the Activity result under setting [2] is “no”.
On to `N[C@@H](COP(=O)(O)O)C(=O)O` [O-Phospho-L-serine], for which the “Z Score” value under setting [7] stood at 0.5472. The molecule further showed a Z score under setting [1] of 0.547. Also, the Activity entry under setting [3] is “no”.
As for `O=c1onc2cnc3ccccc3n12` [ODQ], the “Z Score” value is reported as −0.5922. Besides, the Z score under setting [1] is −0.592. For the same molecule, the Activity result under setting [3] is reported as “no”.
As for `C[C@@H]1O[C@H](C[N+](C)(C)C)CS1.[I-]` [OXA-22 iodide], the Activity entry is “no”, the “Z Score” value was −1.666 and the Z score is −1.666.
As for `CC1COc2c(N3CCN(C)CC3)c(F)cc3c(=O)c(C(=O)O)cn1c23` (stereo not shown) [Ofloxacin], under setting [4], the “Z Score” value was −0.4889. Besides, under setting [1], the Z score is −0.489.
In the case of `CCCCCCCC/C=C\CCCCCCCC(=O)O` [Oleic Acid], under setting [4], the “Z Score” value is reported as −0.3449.
Molecule `CCCCCCCC/C=C\CCCCCCCC(=O)O` [Oleic acid] showed a Z score under setting [1] of −0.345. Besides, the Activity result under setting [5] is given as “no”.
Regarding `CC[C@@H]1/C=C/C=C/C[C@H](C)[C@H](O)[C@](C)(O)C(=O)[C@H](C)[C@@H](O)[C@H](C)C(=O)[C@H](C)[C@@H](O)[C@H](C)/C=C/C(=O)O[C@H]2[C@@H](C)[C@@H](CC1)O[C@@]1(CC[C@@H](C)[C@@H](C[C@H](C)O)O1)[C@@H]2C` [Oligomycin A], under setting [6], the “Z Score” value is reported as −9.731. The molecule further had a Z score under setting [1] of −9.731. The Activity entry under setting [2] is recorded as “yes”.
For `Cn1cnc2c(NCc3ccccc3)nc(NCCO)nc21` [Olomoucine], under “168 h, 3 µM”, the “Z Score” value was determined as 1.553 and the Z score turned out to be 1.553.
As to `Cc1ccccc1C(OCCN(C)C)c1ccccc1` (stereo not shown) [Orphenadrine hydrochloride], the “Z Score” value under setting [7] is given as 0.4548. This molecule returned a Z score under setting [1] of 0.455.
For the molecule `C[C@@H]1O[C@@H](O[C@H]2C[C@@H](O)[C@]3(CO)[C@H]4[C@H](O)C[C@]5(C)[C@@H](C6=CC(=O)OC6)CC[C@]5(O)[C@@H]4CC[C@]3(O)C2)[C@H](O)[C@H](O)[C@H]1O` [Ouabain], the “Z Score” value under setting [6] is −1.568. In addition, under setting [1], the Z score is on record as −1.568. In addition, under setting [3], the Activity entry is “no”.

The values above are taken from patent publication US8058243B2, “Method for treating a brain cancer with ifenprodil” (HSC Research and Development Limited Partnership, priority 2006, dated 2011).
